Measured values: patent US11299496B2, “Ligands for alpha-7 nicotinic acetylcholine receptors and methods of treating neurological and inflammatory conditions” (Northeastern University, priority 2014, dated 2022)

Target: T1, human alpha-7 nAChR (Homo sapiens, UniProt P36544)
T1 construct: expressed in transfected cells; host or cells: Xenopus laevis oocytes (cRNA injection)
Assay: Two-electrode voltage clamp of alpha-7 nAChR expressed in Xenopus oocytes (net charge)
Type: cell-based
Settings: area under the curve of current vs. time; for Charge +C: compound together with choline or ACh, includes PAM and ago-PAM activity; for Charge Alone: compound alone acting as an allosteric agonist; call rule not given here
Description: The human alpha-7 nAChR receptor clone was obtained from Dr. Jon Lindstrom {University of Pennsylvania, Philadelphia, Pa.), aid the RIC-3 clone from Dr. Millet Treinin (Hebrew University, Jerusalem, Israel) for the purpose of co-injection with a7 to improve the level and speed of receptor expression (Halevi et al., 2003). After linearization and purification of cloned cDNA's, RNA, transcripts were prepared rising the appropriate mMessage mMachine kit tiom Ambion (Austin, Tex.).
Expression in X, laeivis Oocytes
Oocytes were obtained from mature (>9 cm) female Xenopus laeivis African frogs (Nasco, Ft. Atkinson, Wis.). Frogs were anesthetized in 0.7 g/L solution of ethyl 3-aminobenzoate methanesulfonate buffered with sodium bicarbonate, and oocytes were surgically removed through an abdominal incision. Harvested oocytes were treated with 1.25 mg/ml collagenase (Worthington Biochemicals, Freehold, N.J.) in calcium-free Barth's solution (88 mM NaCl, 1 mM KCl, 2.38 mM NaHCO3, 0.82 mM MgSO4, 15 mM HEPES, 12 mg/L tetracycline, pH 7.6) for 3-4 hours to remove the follicular layer. Stage-5 oocytes were isolated and injected with 50 nL (5-20 ng) of human alpha-7 and RIC-3 cRNA. Suitable levels of receptor expression were typically achieved 2-6 days after injection of cRNA. For experiments involving the PAM 4BP-TQS/GAT-107, where standard levels of expression result in ion currents too large to be recorded in voltage clamp, experiments were typically conducted 1-3 days after RNA injection.
Two-electrode voltage clamp experiments were conducted using OpusXpress6000A (Molecular Devices, Sunnyvale, Calif.), an integrated system that provides automated impalement and voltage clamp of up to eight oocytes in parallel. Both the current and voltage electrodes were filled with 3 M KCl, and oocytes were clamped at a holding potential of −60 mV. Data were collected at 50 Hz and filtered at 20 Hz. The oocytes were bath-perfused with Ringer's solution (115 mM NaCl, 10 mM HEPES, 2.5 mM KCl, 1.8 mM CaCl2, pH 7.3), and agonist solutions were delivered from a 96-well drug plate using disposable tips. Flow rates were set at 2 mL/min, with each drug or control solution delivered in 12 s durations, followed˜by 181 s washouts with Ringer's unless noted otherwise.
Experimental Protocols and Data Analysis
Responses of human alpha-7 receptors to agonists were measured as both peek current and net charge measured over a 120 s period beginning with the compound application (Papke and Papke, 2002). […] In experiments involving positive allosteric modulators (PAMs), the fast desensitization of alpha-7 was eliminated, allowing peak currents to be used as a valid measurement of the receptor-mediated responses (Wang et al., 2012; Williams et al., 2011).
Oocytes received two control ACh applications prior to receiving any drug in order to establish a steady reference response, and they received one or more control ACh applications at the end of all experiments. For experiments involving drug incubation through bath applications, all responses were normalized to the average of two ACh control responses taken immediately prior to the switch of bath solution, for each cell individually. These normalization procedures had the effect of compensating for differing levels of receptor expression among the multiple oocytes used in each experiment. Each experiment was conducted on at least four oocytes, with mean values and standard errors (S.E.M.) calculated from their normalized responses. […]

T1 sequence (P36544 23-502): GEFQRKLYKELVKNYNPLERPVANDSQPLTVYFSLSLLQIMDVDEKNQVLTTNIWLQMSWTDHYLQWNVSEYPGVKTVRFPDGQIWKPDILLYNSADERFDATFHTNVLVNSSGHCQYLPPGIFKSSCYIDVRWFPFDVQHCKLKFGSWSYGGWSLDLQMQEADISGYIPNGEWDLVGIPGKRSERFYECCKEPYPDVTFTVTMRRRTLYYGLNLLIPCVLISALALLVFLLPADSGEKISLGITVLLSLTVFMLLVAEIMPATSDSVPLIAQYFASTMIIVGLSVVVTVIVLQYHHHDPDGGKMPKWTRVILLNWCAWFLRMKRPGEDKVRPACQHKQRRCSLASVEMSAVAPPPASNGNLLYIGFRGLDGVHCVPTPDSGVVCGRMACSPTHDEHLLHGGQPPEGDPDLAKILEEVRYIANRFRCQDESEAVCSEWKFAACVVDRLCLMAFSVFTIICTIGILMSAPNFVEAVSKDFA

| Compound | Charge +C | Charge Alone |
| --- | --- | --- |
| NS(=O)(=O)c1ccc2c(c1)[C@H]1C=CC[C@H]1[C@@H](c1ccccc1[N+](=O)[O-])N2 (stereo in doubt) [Compound 20, 4-(2-nitrophenyl)-3a,4,5,9b-tetrahydro-3H-cyclopenta[c]quinoline-8-sulfonamide] | 52 |  |
| CC(C)(C)CC(=O)Oc1ccc([C@H]2Nc3ccc(S(N)(=O)=O)cc3[C@H]3C=CC[C@H]32)cc1 (stereo in doubt) [Compound 69, 4-(8-sulfamoyl-3a,4,5,9b-tetrahydro-3H-cyclopenta[c]quinolin-4-yl)phenyl 3,3-dimethylbutanoate] | 582 | 25 |
| [N-]=[N+]=Nc1ccc([C@H]2Nc3ccc(S(N)(=O)=O)cc3[C@H]3C=CC[C@H]32)cc1 [Compound 48, (3aR,4S,9bS)-4-(4-azidophenyl)-3a,4,5,9b-tetrahydro-3H-cyclopenta[c]quinoline-8-sulfonamide] | 764 | 61 |
| NS(=O)(=O)c1ccc2c(c1)[C@H]1C=CC[C@H]1[C@@H](c1cc(Br)sc1Br)N2 [Compound 67, (3aR,4S,9bS)-4-(2,5-dibromothiophen-3-yl)-3a,4,5,9b-tetrahydro-3H-cyclopenta[c]quinoline-8-sulfonamide] | 100 |  |
| NS(=O)(=O)c1ccc2c(c1)[C@H]1C=CC[C@H]1[C@@H](c1csc3ccccc13)N2 (stereo in doubt) [Compound 39, 4-(benzo[b]thiophen-3-yl)-3a,4,5,9b-tetrahydro-3H-cyclopenta[c]quinoline-8-sulfonamide] | 145 | 22 |
| NS(=O)(=O)c1ccc2c(c1)[C@H]1C=CC[C@H]1[C@@H](c1ccc3sccc3c1)N2 (stereo in doubt) [Compound 96, 4-(benzo[b]thiophen-5-yl)-3a,4,5,9b-tetrahydro-3H-cyclopenta[c]quinoline-8-sulfonamide] | 156 | 116 |
| NS(=O)(=O)c1ccc2c(c1)[C@H]1C=CC[C@H]1[C@@H](c1ccc(NC(=O)OC3CCCCC3)cc1)N2 (stereo in doubt) [Compound 61, cyclohexyl(4-(8-sulfamoyl-3a,4,5,9b-tetrahydro-3H-cyclopenta[c]quinolin-4-yl)phenyl)carbamate] | 85 |  |
| CC(=O)c1ccc2c(c1)[C@H]1C=CC[C@H]1[C@@H](c1cc3c(cc1Br)OCO3)N2 [Compound 30] | Inactive | Inactive |
| NS(=O)(=O)c1ccc2c(c1)[C@H]1C=CC[C@H]1[C@@H](c1ccc(Br)cn1)N2 (stereo in doubt) [Compound 97, 4-(5-bromopyridin-2-yl)-3a,4,5,9b-tetrahydro-3H-cyclopenta[c]quinoline-8-sulfonamide] | 357 | 7 |
| NS(=O)(=O)c1ccc2c(c1)[C@H]1C=CC[C@H]1[C@@H](c1ccccn1)N2 (stereo in doubt) [Compound 52, 4-(pyridin-2-yl)-3a,4,5,9b-tetrahydro-3H-cyclopenta[c]quinoline-8-sulfonamide] | 4 |  |
| [N-]=[N+]=Nc1c(F)c(F)c([C@H]2Nc3ccc(S(N)(=O)=O)cc3[C@H]3C=CC[C@H]32)c(F)c1F [Compound 43, (3aR,4S,9bS)-4-(4-azido-2,3,5,6-tetrafluorophenyl)-3a,4,5,9b-tetrahydro-3H-cyclopenta[c]quinoline-8-sulfonamide] | 5.5 |  |
| CCCNS(=O)(=O)c1ccc2c(c1)[C@H]1C=CC[C@H]1[C@@H](c1ccccc1)N2 (stereo in doubt) [Compound 112, 4-phenyl-N-propyl-3a,4,5,9b-tetrahydro-3H-cyclopenta[c]quinoline-8-sulfonamide] | Inactive | Inactive |
| NS(=O)(=O)c1ccc2c(c1)[C@H]1C=CC[C@H]1[C@@H](c1scc(Br)c1Br)N2 (stereo in doubt) [Compound 38, 4-(3,4-dibromothiophen-2-yl)-3a,4,5,9b-tetrahydro-3H-cyclopenta[c]quinoline-8-sulfonamide] | 1246 | 18 |

Results, then the molecule that gave them:

| Charge +C | Charge Alone | Compound |
| --- | --- | --- |
| Inactive | Inactive | CS(=O)(=O)Nc1ccc2c(c1)[C@H]1C=CC[C@H]1[C@@H](c1ccc(Br)cc1)N2 (stereo in doubt) [Compound 115, N-(4-(4-bromophenyl)-3a,4,5,9b-tetrahydro-3H-cyclopenta[c]quinolin-8-yl)methanesulfonamide] |
| Inactive | Inactive | NS(=O)(=O)c1ccc2c(c1)N[C@H](c1ccc(Br)cc1)[C@@H]1CC=C[C@H]21 (stereo in doubt) [Compound 10, 4-(4-bromophenyl)-3a,4,5,9b-tetrahydro-3H-cyclopenta[c]quinoline-7-sulfonamide] |
| Inactive | Inactive | NS(=O)(=O)c1ccc2c(c1)[C@@H]1C=CC[C@@H]1[C@H](c1ccc(I)cc1)N2 [Compound 45, (3aS,4R,9bR)-4-(4-iodophenyl)-3a,4,5,9b-tetrahydro-3H-cyclopenta[c]quinoline-8-sulfonamide] |
| Inactive | Inactive | CCNS(=O)(=O)c1ccc2c(c1)[C@H]1C=CC[C@H]1[C@@H](c1ccc(Br)cc1)N2 [Compound 114] |
| Inactive | Inactive | NS(=O)(=O)c1cccc2c1N[C@H](c1ccc(Br)cc1)[C@@H]1CC=C[C@H]21 (stereo in doubt) [Compound 11, 4-(4-bromophenyl)-3a,4,5,9b-tetrahydro-3H-cyclopenta[c]quinoline-6-sulfonamide] |
| Inactive | Inactive | O=S(=O)(c1ccc2c(c1)[C@@H]1C=CC[C@@H]1[C@H](c1ccc(Br)cc1)N2)N1CCCC1 [Compound 56, (3aS,4R,9bR)-4-(4-bromophenyl)-8-(pyrrolidin-1-ylsulfonyl)-3a,4,5,9b-tetrahydro-3H-cyclopenta[c]quinolone] |
| Inactive | Inactive | O=S(=O)(c1ccc2c(c1)[C@H]1C=CC[C@H]1[C@@H](c1ccc(Br)cc1)N2)N1CCOCC1 (stereo in doubt) [Compound 23, 4-((4-(4-bromophenyl)-3a,4,5,9b-tetrahydro-3H-cyclopenta[c]quinolin-8-yl)sulfonyl)morpholine] |
| Inactive | Inactive | CN(C)S(=O)(=O)c1ccc2c(c1)[C@H]1C=CC[C@H]1[C@@H](c1ccc(Br)cc1)N2 (stereo in doubt) [Compound 21, 4-(4-bromophenyl)-N,N-dimethyl-3a,4,5,9b-tetrahydro-3H-cyclopenta[c]quinoline-8-sulfonamide] |
| Inactive | Inactive | O=S(=O)(NC1CCC1)c1ccc2c(c1)[C@H]1C=CC[C@H]1[C@@H](c1ccc(Br)cc1)N2 [Compound 104, 4-(4-bromophenyl)-N-cyclobutyl-3a,4,5,9b-tetrahydro-3H-cyclopenta[c]quinoline-8-sulfonamide] |
| 487 | 52 | CC(C)(C)COC(=O)c1ccc([C@H]2Nc3ccc(S(N)(=O)=O)cc3[C@H]3C=CC[C@H]32)cc1 (stereo in doubt) [Compound 70, neopentyl4-(8-sulfamoyl-3a,4,5,9b-tetrahydro-3H-cyclopenta[c]quinolin-4-yl)benzoate] |
|  | 61 | [N-]=[N+]=Nc1ccc([C@H]2Nc3ccc(S(N)(=O)=O)cc3[C@H]3C=CC[C@H]32)cc1 (stereo in doubt) [Compound 25, 4-(4-azidophenyl)-3a,4,5,9b-tetrahydro-3H-cyclopenta[c]quinoline-8-sulfonamide] |
| Inactive | Inactive | O=C(O)c1ccc2c(c1)[C@H]1C=CC[C@H]1[C@@H](c1ccc(Br)cc1)N2 (stereo in doubt) [Compound 40, 4-(4-bromophenyl)-3a,4,5,9b-tetrahydro-3H-cyclopenta[c]quinoline-8-carboxylic acid] |
